According to article PMC5362899, “Structural insights into the nucleotide base specificity of P2X receptors” (Scientific Reports, 2017):

Target: T1, zfP2X4 (ΔP2X4-C) WT (Danio rerio, UniProt F8W463, N187R/N78K)
T1 construct: EGFP (N); octa-histidine tag (N); made in house; host or cells: Sf9 insect cells
T1 sequence (F8W463 28-365 N78K/N187R limits assumed): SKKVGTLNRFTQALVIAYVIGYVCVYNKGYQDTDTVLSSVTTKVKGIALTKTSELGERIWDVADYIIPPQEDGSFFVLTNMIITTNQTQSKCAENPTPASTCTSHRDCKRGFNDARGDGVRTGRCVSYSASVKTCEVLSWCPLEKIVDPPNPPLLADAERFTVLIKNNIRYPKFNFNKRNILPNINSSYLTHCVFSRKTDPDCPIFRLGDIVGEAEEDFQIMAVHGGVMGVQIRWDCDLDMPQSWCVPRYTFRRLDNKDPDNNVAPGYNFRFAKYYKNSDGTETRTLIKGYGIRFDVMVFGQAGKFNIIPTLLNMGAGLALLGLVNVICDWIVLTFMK
Assay: ATR-FTIR difference spectroscopy, residual nucleotide after washing, zfP2X4 WT
Type: binding, zebrafish
Conditions: 10 μM nucleotide, after 15–30 min washing, P-O stretching bands 1250–800 cm−1
Description: To further investigate the nucleotide binding specificity of zfP2X4, we applied ligand-binding induced difference Attenuated total reflectance (ATR)-Fourier-transform infrared (FTIR) spectroscopy on the WT and conserved threonine mutants (T189S and T189V) of zfP2X4.
Figure 5 ATR-FTIR spectroscopic analysis of zfP2X4 for the ATP and CTP bindings. (A) The reduction of the ligand binding induced difference spectra in the ΔP2X4-C ^zfWT, ^zfT189S and ^zfT189V mutants around the P-O stretching region (1250–800 cm^−1) after washing treatment for 15–30 min. (B) The residual nucleotides after the washing treatment estimated from the ATR-FTIR analysis in (A).
The nucleotide binding affinity of zfP2X4 was analyzed by reduction of the band intensity after washing treatment (Fig. 5). The reduction of the P-O stretching bands between 1250–800 cm^−1 was monitored for ATP (Fig. 5A). […]
The perfusion-induced difference FTIR spectroscopy was performed as similarly to the previous studies. […] ATR-FTIR spectra of the samples were recorded at 25 °C and 2 cm^−1 resolution using a VERTEX 70 spectrometer (Bruker Optics) equipped with a liquid-nitrogen-cooled MCT detector. […] The obtained difference spectra were normalized based on the absolute absorbance of the amide I band at 1653 cm^−1, which well correlates with the quantities of the proteins on the ATR crystals. […]

SMILES | residual nucleotide binding after washing
Nc1ncnc2c1ncn2[C@@H]1O[C@H](COP(=O)(O)OP(=O)(O)OP(=O)(O)O)[C@@H](O)[C@H]1O [ATP, Adenosine 5-triphosphate] | ~ 80%
Nc1ccn([C@@H]2O[C@H](COP(=O)(O)OP(=O)(O)OP(=O)(O)O)[C@@H](O)[C@H]2O)c(=O)n1 [CTP] | ~ 50%
